Experimental data from US8231693B2, “5-substituted 2-(alkoxymethyl)furans” (Furanix Technologies B.V., priority 2007, dated 2012).

Assay: Fuel solubility: miscibility in blends with commercial diesel
Assay type: physicochemical
Description: Fuel solubility is a primary concern for diesel fuel applications. Not all highly polar oxygenates have good solubility in the current commercial diesel fuels.

[1] = all blend ratios with commercial diesel

| miscibility with commercial diesel (5 vol % blend with commercial diesel) | miscibility with commercial diesel (25 vol % blend with diesel) | miscibility with commercial diesel (40 vol % blend with diesel) | Structure (SMILES) | miscibility with commercial diesel [1] |
| --- | --- | --- | --- | --- |
| – | – | – | CCOCc1ccc(COCC)o1 [2,5-di(ethoxymethyl)furan] | miscible in all blend ratio's |
| – | – | – | CCOCc1ccc(COC(C)(C)C)o1 [5-(tertbutoxymethyl)-2-(ethoxymethyl)furan] | miscible in all blend ratio's |
| completely miscible | phase separation occurs | phase separation occurs | CCOCc1ccc(C=O)o1 [EMF, 5-(ethoxymethyl)furfural] | – |
